Nine compounds from patent US20240400577A1, “MODULATORS OF PROTEIN KINASES” (VIBLIOME THERAPEUTICS, LLC, priority 2021, published 2024) can be followed below.

Bounds are passed on as bounds.

What all share (assay): Kinase panel enzymatic inhibition assay (Nanosyn)
Common to all, as to type: biochemical

In assay [1] the target is T1, PDGFRa (Homo sapiens, UniProt P16234).
T1 construct: Nanosyn (contract laboratory that ran the panel)
The following applies: compound 5 μM; ATP at Km; 30-minute pre-incubation. The gist of the method:
(§1)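 Read-out is percent inhibition or IC50, obtained by mobility shift, ADP detection or time-resolved fluorescence detection. Each kinase was run with ATP at its Km, and compound at 5 μM was pre-incubated for 30 minutes.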

The target in assay [2] is T2, p38b (Homo sapiens, UniProt Q15759).
T2 construct: Nanosyn (contract laboratory that ran the panel)
T2 sequence (Q15759 whole entry): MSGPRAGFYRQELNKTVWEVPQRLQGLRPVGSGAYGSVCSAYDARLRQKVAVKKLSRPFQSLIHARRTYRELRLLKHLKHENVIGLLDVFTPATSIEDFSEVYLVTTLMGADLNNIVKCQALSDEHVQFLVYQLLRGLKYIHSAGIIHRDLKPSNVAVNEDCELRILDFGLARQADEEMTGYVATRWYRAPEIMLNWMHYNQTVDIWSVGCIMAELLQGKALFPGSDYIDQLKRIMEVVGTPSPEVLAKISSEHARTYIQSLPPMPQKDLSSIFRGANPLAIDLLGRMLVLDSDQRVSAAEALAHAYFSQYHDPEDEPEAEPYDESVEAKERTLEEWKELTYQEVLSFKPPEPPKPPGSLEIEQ
The note with it: compound 5 μM; ATP at Km; 30-minute pre-incubation. The gist of the method: as §1

Assay [3] deals with T3, HGK (Homo sapiens, UniProt O95819).
T3 construct: purchased Nanosyn (contract screening)
T3 sequence (O95819 whole entry): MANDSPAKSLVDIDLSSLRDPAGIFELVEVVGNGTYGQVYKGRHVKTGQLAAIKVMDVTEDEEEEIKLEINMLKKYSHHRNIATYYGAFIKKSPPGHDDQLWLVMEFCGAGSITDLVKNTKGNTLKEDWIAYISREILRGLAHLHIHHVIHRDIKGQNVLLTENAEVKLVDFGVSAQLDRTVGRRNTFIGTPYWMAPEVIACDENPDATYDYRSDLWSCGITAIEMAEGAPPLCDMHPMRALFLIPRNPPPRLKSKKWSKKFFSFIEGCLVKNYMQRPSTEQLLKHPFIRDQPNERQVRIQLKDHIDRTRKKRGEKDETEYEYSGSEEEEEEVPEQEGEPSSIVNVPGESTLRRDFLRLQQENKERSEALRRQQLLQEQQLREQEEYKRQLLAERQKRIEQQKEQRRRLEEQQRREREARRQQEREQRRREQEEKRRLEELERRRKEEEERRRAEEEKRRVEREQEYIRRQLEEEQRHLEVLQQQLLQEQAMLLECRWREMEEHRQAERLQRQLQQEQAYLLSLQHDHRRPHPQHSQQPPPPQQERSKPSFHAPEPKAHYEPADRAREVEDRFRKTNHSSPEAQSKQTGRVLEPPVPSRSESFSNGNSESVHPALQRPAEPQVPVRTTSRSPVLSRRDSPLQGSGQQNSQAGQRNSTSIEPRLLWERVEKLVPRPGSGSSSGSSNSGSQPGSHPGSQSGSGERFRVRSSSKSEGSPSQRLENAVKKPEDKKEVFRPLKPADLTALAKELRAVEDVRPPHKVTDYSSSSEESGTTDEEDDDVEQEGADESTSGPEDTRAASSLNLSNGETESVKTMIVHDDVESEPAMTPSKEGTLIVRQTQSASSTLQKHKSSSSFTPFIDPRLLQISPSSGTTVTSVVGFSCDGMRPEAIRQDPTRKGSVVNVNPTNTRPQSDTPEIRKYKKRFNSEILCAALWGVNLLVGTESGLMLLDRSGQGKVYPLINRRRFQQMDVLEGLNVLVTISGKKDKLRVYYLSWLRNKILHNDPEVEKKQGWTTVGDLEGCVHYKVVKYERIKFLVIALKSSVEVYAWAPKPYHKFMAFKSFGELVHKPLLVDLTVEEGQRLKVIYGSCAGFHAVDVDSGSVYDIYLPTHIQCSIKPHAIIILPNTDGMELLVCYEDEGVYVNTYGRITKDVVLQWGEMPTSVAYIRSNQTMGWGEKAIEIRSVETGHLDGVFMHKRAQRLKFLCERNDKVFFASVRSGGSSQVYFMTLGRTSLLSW
The note with it: compound 5 μM; ATP at Km; 30-minute pre-incubation. The gist of the method:
as §1

In assay [4] the target is T4, DDR2 (Homo sapiens, UniProt Q16832).
T4 construct: purchased Nanosyn (contract screening)
T4 sequence (Q16832 22-855): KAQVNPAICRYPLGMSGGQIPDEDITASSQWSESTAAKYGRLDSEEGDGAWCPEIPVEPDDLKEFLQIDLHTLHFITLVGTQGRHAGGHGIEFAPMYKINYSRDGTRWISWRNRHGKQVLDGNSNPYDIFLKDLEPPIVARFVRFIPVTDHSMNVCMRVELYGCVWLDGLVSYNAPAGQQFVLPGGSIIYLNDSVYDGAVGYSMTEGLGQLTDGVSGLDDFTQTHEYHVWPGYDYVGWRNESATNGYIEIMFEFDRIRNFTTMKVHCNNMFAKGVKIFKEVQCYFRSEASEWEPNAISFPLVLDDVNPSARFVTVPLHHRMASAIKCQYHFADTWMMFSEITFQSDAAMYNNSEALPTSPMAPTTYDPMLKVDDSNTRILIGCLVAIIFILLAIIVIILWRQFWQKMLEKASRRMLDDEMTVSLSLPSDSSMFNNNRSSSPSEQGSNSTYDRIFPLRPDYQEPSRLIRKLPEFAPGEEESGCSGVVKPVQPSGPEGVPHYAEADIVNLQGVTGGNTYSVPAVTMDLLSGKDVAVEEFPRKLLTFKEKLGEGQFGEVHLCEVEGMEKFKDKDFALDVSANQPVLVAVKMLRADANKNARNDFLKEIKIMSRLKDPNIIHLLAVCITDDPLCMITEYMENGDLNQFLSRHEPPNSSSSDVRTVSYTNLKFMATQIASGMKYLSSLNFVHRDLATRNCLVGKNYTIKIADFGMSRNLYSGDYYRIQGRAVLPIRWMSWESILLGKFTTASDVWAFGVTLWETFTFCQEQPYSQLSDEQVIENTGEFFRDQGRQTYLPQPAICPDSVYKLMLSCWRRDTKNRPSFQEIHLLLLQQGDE
The following applies: ATP at Km, 30-minute pre-incubation; for inhibition at 5 µM: compound 5 μM; for IC50: read-out: kinase inhibition in terms of IC50, DDR2. The essentials: as §1

The target in assay [5] is T5, SPHK2 (Homo sapiens, UniProt Q9NRA0).
T5 construct: Nanosyn (contract laboratory that ran the panel)
T5 sequence (Q9NRA0 1-654): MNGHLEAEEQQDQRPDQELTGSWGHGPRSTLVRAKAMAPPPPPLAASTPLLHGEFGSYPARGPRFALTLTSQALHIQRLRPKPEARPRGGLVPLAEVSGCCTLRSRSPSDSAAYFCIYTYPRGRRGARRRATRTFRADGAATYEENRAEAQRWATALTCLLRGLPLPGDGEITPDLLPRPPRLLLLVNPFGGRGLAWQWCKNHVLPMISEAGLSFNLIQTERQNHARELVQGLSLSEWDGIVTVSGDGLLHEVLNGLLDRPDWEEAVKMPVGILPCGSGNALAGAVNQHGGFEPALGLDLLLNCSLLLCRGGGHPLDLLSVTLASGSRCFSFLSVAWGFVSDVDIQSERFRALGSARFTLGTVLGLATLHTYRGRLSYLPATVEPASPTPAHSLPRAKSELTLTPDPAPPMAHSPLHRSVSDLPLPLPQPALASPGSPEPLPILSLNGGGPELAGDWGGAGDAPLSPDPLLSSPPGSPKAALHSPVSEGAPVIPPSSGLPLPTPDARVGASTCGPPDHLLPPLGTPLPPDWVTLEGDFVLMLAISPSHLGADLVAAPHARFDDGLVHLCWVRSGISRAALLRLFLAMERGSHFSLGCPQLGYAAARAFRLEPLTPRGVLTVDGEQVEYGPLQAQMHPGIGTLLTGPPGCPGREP
The following applies: compound 5 μM; ATP at Km; 30-minute pre-incubation. The gist of the method:
as §1

In assay [6] the target is T6, PIKfyve (Homo sapiens, UniProt Q9Y2I7).
T6 construct: Nanosyn (contract laboratory that ran the panel)
The note with it: compound 5 μM; ATP at Km; 30-minute pre-incubation. The gist of the method:
as §1

In assay [7] the target is T7, YES (Homo sapiens, UniProt P07947).
T7 construct: Nanosyn (contract laboratory that ran the panel)
T7 sequence (P07947 whole entry): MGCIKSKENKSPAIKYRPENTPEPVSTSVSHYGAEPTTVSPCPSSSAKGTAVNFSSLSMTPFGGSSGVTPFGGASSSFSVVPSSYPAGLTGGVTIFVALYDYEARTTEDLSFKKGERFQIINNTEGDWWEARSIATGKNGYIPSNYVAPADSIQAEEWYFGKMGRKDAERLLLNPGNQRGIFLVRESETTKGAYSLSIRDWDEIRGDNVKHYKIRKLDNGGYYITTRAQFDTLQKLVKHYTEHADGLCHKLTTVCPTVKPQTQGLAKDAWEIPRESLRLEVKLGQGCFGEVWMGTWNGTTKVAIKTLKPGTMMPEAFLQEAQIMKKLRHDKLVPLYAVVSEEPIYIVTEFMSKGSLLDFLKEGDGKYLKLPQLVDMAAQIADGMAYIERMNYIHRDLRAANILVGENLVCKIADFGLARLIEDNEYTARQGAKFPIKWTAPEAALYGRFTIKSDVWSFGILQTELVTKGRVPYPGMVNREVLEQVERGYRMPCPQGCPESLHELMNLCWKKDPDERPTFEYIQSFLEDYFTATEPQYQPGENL
The following applies: compound 5 μM; ATP at Km; 30-minute pre-incubation. The gist of the method: as §1

In assay [8] the target is T8, KDR (Homo sapiens, UniProt P35968).
T8 construct: purchased Nanosyn (contract screening)
T8 sequence (P35968 20-1356): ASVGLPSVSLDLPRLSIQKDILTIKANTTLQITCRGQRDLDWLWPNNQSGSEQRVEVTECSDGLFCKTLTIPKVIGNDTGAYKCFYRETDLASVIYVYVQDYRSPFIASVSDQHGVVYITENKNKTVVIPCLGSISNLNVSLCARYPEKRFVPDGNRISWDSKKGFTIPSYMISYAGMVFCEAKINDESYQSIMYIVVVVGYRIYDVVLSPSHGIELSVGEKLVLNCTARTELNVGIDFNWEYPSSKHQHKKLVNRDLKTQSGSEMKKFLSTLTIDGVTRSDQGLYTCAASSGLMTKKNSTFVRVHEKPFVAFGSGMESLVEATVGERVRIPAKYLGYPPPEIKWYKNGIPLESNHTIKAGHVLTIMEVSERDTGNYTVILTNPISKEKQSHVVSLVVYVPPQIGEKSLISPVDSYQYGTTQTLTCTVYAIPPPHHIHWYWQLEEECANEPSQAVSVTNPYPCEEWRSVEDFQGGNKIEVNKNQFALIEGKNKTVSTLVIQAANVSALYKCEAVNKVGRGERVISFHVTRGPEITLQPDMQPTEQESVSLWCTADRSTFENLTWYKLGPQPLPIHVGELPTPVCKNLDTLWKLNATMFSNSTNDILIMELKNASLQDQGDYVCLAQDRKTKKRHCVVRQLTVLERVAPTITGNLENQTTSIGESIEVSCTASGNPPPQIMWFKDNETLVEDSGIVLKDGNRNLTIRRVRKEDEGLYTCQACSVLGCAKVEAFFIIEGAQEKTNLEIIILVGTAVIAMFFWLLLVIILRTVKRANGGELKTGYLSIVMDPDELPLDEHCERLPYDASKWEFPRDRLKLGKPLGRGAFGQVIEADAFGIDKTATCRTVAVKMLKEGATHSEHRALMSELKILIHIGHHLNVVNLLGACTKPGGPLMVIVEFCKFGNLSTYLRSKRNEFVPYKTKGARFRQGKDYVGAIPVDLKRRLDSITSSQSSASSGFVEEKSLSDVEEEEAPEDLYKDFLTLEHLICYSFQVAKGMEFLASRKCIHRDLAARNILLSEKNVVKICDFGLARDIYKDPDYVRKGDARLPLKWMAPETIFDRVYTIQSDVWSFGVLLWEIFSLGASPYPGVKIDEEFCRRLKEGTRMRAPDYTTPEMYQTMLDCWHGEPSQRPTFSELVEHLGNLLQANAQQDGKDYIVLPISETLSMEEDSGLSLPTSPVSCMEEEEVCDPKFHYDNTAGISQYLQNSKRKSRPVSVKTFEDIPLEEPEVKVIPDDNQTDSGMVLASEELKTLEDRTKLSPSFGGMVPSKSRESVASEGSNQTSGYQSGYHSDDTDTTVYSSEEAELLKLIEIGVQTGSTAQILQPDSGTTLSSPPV
The note with it: compound 5 μM; ATP at Km; 30-minute pre-incubation. The essentials: as §1

In assay [9] the target is T9, ARAF (Homo sapiens, UniProt P10398).
T9 construct: purchased Nanosyn (contract screening)
T9 sequence (P10398 1-606): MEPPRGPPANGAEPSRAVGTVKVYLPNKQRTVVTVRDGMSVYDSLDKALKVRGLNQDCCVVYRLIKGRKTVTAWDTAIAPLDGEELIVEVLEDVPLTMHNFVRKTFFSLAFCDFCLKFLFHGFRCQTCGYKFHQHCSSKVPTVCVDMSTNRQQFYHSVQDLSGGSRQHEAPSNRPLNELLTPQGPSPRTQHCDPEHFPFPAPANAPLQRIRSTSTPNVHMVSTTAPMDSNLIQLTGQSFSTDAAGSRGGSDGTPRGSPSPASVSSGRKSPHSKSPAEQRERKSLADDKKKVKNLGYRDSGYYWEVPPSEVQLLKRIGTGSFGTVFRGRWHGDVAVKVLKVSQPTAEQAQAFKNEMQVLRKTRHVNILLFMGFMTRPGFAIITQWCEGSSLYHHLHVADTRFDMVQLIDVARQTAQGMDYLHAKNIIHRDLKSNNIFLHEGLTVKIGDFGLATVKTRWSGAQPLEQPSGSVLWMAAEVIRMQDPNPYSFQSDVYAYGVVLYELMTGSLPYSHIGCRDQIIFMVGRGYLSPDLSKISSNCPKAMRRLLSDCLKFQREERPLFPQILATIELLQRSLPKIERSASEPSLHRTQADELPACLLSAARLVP
The following applies: compound 5 μM; ATP at Km; 30-minute pre-incubation. The gist of the method:
as §1

T1 sequence (P16234 24-1089): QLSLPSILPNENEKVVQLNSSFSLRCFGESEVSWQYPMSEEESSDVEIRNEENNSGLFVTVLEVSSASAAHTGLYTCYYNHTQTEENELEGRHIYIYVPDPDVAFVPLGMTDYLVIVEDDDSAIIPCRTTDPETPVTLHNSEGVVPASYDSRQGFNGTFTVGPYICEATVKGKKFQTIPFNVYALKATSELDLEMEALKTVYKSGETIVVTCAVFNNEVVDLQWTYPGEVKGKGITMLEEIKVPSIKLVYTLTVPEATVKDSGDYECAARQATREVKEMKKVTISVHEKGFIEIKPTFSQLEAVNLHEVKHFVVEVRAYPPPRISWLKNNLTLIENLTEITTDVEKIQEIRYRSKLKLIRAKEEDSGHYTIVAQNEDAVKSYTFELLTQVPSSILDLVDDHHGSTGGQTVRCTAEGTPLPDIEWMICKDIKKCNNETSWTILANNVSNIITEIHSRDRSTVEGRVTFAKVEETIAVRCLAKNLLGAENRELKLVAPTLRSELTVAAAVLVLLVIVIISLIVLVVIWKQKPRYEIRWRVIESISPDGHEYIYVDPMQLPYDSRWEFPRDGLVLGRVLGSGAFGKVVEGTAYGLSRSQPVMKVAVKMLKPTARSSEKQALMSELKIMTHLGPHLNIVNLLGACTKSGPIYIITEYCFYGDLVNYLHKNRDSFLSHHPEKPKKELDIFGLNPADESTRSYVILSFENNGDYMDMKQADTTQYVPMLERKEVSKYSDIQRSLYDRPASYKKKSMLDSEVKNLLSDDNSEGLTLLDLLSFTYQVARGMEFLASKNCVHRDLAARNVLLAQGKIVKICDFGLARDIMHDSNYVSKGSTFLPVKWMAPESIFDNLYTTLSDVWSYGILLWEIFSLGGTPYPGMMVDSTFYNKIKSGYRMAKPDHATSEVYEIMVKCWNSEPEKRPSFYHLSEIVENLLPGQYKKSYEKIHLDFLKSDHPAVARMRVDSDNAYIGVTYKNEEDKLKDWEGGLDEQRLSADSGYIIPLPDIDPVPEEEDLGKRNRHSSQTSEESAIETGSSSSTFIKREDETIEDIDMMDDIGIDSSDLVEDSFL

Broadly, the inhibition is the drop in the measured response relative to a control, in per cent. Read a high inhibition as a strong effect. For `Cc1ccc(NC(=O)c2cc(S(C)(=O)=O)n(-c3ccc(F)cc3)n2)cc1Nc1nccc(-c2cccnc2N)n1` [Ex13, N-(3-((4-(2-aminopyridin-3-yl)pyrimidin-2-yl)amino)-4-methylphenyl)-1-(4-fluorophenyl)-5-(methylsulfonyl)-1H-pyrazole-3-carboxamide], the inhibition at 5 µM in [1] is at least 95%; in assay [2], below 79%; in [3], below 79%; in assay [4], at least 95%; in [5] it was 80 to 89%; in assay [6], below 79%. For the same compound, the inhibition at 5 µM was below 79% in assay [7], below 79% in assay [8] and at least 95% in [9].
Regarding `Cc1ccc(NC(=O)c2cc(S(C)(=O)=O)n(-c3ccc(F)cc3)n2)cc1C#Cc1cnc2cccnn12` [Ex14, 1-(4-fluorophenyl)-N-(3-(imidazo[1,2-b]pyridazin-3-ylethynyl)-4-methylphenyl)-5-(methylsulfonyl)-1H-pyrazole-3-carboxamide], the inhibition at 5 µM is below 79% in assay [1]; below 79% in [2]; below 79% in assay [3]; at least 95% in assay [4]; below 79% in [5]; 80 to 89% in assay [6]. In addition, the values for the inhibition at 5 µM in assay [7], in [8] and in assay [9] were below 79%, 90 to 94% and at least 95%, respectively.
Regarding `Cc1ccc(NC(=O)c2cc([S+](C)[O-])n(-c3ccc(F)cc3)n2)cc1Nc1ccc2ncn(C)c(=O)c2c1` (centres unmarked) [Ex5, 1-(4-fluorophenyl)-N-(4-methyl-3-((3-methyl-4-oxo-3,4-dihydroquinazolin-6-yl)amino)phenyl)-5-(methylsulfinyl)-1H-pyrazole-3-carboxamide], the inhibition at 5 µM in [1] was below 79%; in assay [2], 80 to 89%; in assay [3], below 79%; in [4], below 79%; in [5], below 79%; in assay [6] it was below 79%. In addition, the inhibition at 5 µM in assay [7] was below 79%; in [8] it was below 79%; in [9], at least 95%.
On to `Cc1ccc(NC(=O)c2cc([S+](C)[O-])n(-c3ccc(F)cc3)n2)cc1-c1cc(N2CCOCC2)c(=O)n(C)c1` (centres unmarked) [Ex11, 1-(4-fluorophenyl)-N-(4-methyl-3-(1-methyl-5-morpholino-6-oxo-1,6-dihydropyridin-3-yl)phenyl)-5-(methylsulfinyl)-1H-pyrazole-3-carboxamide], for which the inhibition at 5 µM in assay [1], in assay [2], in [3], in [4], in assay [5] and in [6] was below 79% each time. In addition, the results for the inhibition at 5 µM in assay [7], in assay [8] and in assay [9] were below 79%, below 79% and at least 95%, respectively.
As for `CCOC(=O)Nc1cn2nc(Nc3cc(NC(=O)c4cc(S(C)(=O)=O)n(-c5ccc(F)cc5)n4)ccc3C)ccc2n1` [Ex15, ethyl (6-((5-(1-(4-fluorophenyl)-5-(methylsulfonyl)-1H-pyrazole-3-carboxamido)-2-methylphenyl)amino)imidazo[1,2-b]pyridazin-2-yl)carbamate], the inhibition at 5 µM in assay [1] was at least 95%; in assay [2], 80 to 89%; in assay [3], below 79%; in assay [4], at least 95%; in assay [5], below 79%; in [6], below 79%. The inhibition at 5 µM in [7] is at least 95%; in assay [8] it was 80 to 89%; in [9] it was below 79%.
Regarding `Cc1ccc(NC(=O)c2cc(S(C)(=O)=O)n(-c3ccc(F)cc3)n2)cc1-c1cc(N2CCOCC2)c(=O)n(C)c1` [Ex12, 1-(4-fluorophenyl)-N-(4-methyl-3-(1-methyl-5-morpholino-6-oxo-1,6-dihydropyridin-3-yl)phenyl)-5-(methylsulfonyl)-1H-pyrazole-3-carboxamide], the inhibition at 5 µM in assay [1], in assay [2], in assay [3], in [4], in assay [5] and in assay [6] was below 79% in each case. Besides, the inhibition at 5 µM was below 79% in assay [7], below 79% in [8] and at least 95% in [9].
On to `CNC(=O)c1cc(Oc2ccc(NC(=O)c3cc(S(C)(=O)=O)n(-c4ccc(F)cc4)n3)c(F)c2)ccn1` [Ex17, 4-(3-fluoro-4-(1-(4-fluorophenyl)-5-(methylsulfonyl)-1H-pyrazole-3-carboxamido)phenoxy)-N-methylpicolinamide], for which the inhibition at 5 µM in assay [1], in assay [2], in assay [3], in [4], in assay [5] and in assay [6] was below 79% throughout. Moreover, the inhibition at 5 µM in assay [7], in assay [8] and in assay [9] was below 79% throughout.
Usually IC50 stands for the concentration needed to halve the response being measured. Regarding `COc1cc2nccc(Oc3ccc(NC(=O)c4cc(S(C)(=O)=O)n(-c5ccc(F)cc5)n4)c(F)c3)c2cc1OC` [Ex71, N-(4-((6,7-dimethoxyquinolin-4-yl)oxy)-2-fluorophenyl)-1-(4-fluorophenyl)-5-(methylsulfonyl)-1H-pyrazole-3-carboxamide], the concentration for half-maximal inhibition (IC50) in assay [4] is below 500 nM.
Same read-out and setting: next, `COc1cc2nccc(Oc3ccc(NC(=O)c4cc(S(C)(=O)=O)n(-c5ccc(F)cc5)n4)cc3F)c2cc1OC` [Ex73, N-(4-((6,7-dimethoxyquinolin-4-yl)oxy)-3-fluorophenyl)-1-(4-fluorophenyl)-5-(methylsulfonyl)-1H-pyrazole-3-carboxamide]: below 500 nM.
